A word on the IC50: it is the midpoint of a concentration-inhibition curve.

Like-named read-outs stand apart in the source and are kept apart here.

The assay relates to HCV proteins in Rep5.1 cells (replicon cell line). Put plainly: Inhibitory activity of HCV: cell-based ELISA in replicon cell line Rep5.1 (decrease of HCV proteins). To be noted: Hepatitis C virus, 72 h. Also noted: species or system hepatitis C virus. A digest of the protocol:
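Rep5.1 replicon cells (5000/well, DMEM-10 with 500 μg/ml G418) were given serially diluted drug 4 h after seeding. After 72 h, cells were fixed in methanol/acetone and HCV proteins detected by cell-based ELISA using replicon-specific patient plasma antibodies. IC50 is the concentration giving 50% protein decrease versus the no-drug control.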

[1] abbreviates: Rep5.1 cells, 72 hours with drug, concentration at which 50% of HCV proteins was decreased, Table 2, read-out: IC50.
The mark [2] stands for this setting: Rep5.1 cells, 72 hours with drug, decrease of HCV proteins measured by HCV antibody, Table 1, read-out: Level (IC50 values classified).

Take `O=C(OCc1ccccc1)C1=CNC(=S)NC1` [Compound 44, 2-thioxo-1,2,3,4-tetrahydro-pyrimidine-5-carboxylic acid benzyl ester]: the concentration for half-maximal inhibition (IC50) under setting [1] was 3000 nM and the IC50 under setting [2] was 1000 to 10000 nM.

In the case of `CC1=C(C(=O)OCc2ccc(C(C)(C)C)cc2)CNC(=S)N1` [Compound 45, 6-methyl-2-thioxo-1,2,3,4-tetrahydro-pyrimidine-5-carboxylic acid 4-t-butyl-benzyl ester], the 50% inhibitory concentration (IC50) is under 400 nM under setting [1] and under 1000 nM under setting [2].

On to `CC1=C(C(=O)OCC2CC2)CNC(=S)N1` [Compound 46, 6-methyl-2-thioxo-1,2,3,4-tetrahydro-pyrimidine-5-carboxylic acid cyclopropylmethyl ester], for which the IC50 under setting [1] turned out to be 30000 nM and the IC50 under setting [2] was in the range of 10000 to 20000 nM.

`CCCCCC(CC)OC(=O)C1=C(C)NC(=S)NC1` (stereo not drawn) [Compound 47, 6-methyl-2-thioxo-1,2,3,4-tetrahydro-pyrimidine-5-carboxylic acid 1-ethyl-hexyl ester]: the IC50 runs as follows: under setting [1], under 500 nM; under setting [2], under 1000 nM.

For the molecule `CC1=C(C(=O)OCc2cccc(C#N)c2)CNC(=S)N1` [Compound 48, 6-methyl-2-thioxo-1,2,3,4-tetrahydro-pyrimidine-5-carboxylic acid 3-cyano-benzyl ester], the IC50 reads like this: under setting [1], 30000 nM; under setting [2], 10000 to 20000 nM.

Take `CC1=C(C(=O)OCc2ccc(OCc3ccccc3)cc2)CNC(=S)N1` [Compound 49, 6-methyl-2-thioxo-1,2,3,4-tetrahydro-pyrimidine-5-carboxylic acid 4-benzyloxy-benzyl ester]: the 50% inhibitory concentration (IC50) under setting [1] is under 500 nM and the concentration for half-maximal inhibition (IC50) under setting [2] is under 1000 nM.

For `CC1=C(C(=O)OCc2cccc(OCc3ccccc3)c2)CNC(=S)N1` [Compound 50, 6-methyl-2-thioxo-1,2,3,4-tetrahydro-pyrimidine-5-carboxylic acid 3-benzyloxy-benzyl ester], the half-maximal inhibitory concentration (IC50) is, setting by setting: under setting [1], under 500 nM; under setting [2], under 1000 nM.

`CCCCc1ccc(COC(=O)C2=C(C)NC(=S)NC2)cc1` [Compound 51, 6-methyl-2-thioxo-1,2,3,4-tetrahydro-pyrimidine-5-carboxylic acid 4-butyl-benzyl ester]: the IC50 under setting [1] was under 500 nM and the IC50 under setting [2] is under 1000 nM.

In the case of `CC1=C(C(=O)OCc2ccc([S+](C)[O-])cc2)CNC(=S)N1` (stereo not drawn) [Compound 52, 6-methyl-2-thioxo-1,2,3,4-tetrahydro-pyrimidine-5-carboxylic acid 4-methylsulfinyl-benzyl ester], the concentration for half-maximal inhibition (IC50) reads like this: under setting [1], 700 nM; under setting [2], under 1000 nM.

For `CC(C)=CCOC(=O)C1=C(C)NC(=S)NC1` [Compound 53, 6-methyl-2-thioxo-1,2,3,4-tetrahydro-pyrimidine-5-carboxylic acid 3-methyl-but-2-enyl ester], the half-maximal inhibitory concentration (IC50) stood at 6600 nM. Further, under “read-out: Level (IC50 values classified)”, the IC50 lay in the range of 1000 to 10000 nM.

On to `CC1=C(C(=O)OCC=Cc2ccccc2)CNC(=S)N1` [Compound 54, 6-methyl-2-thioxo-1,2,3,4-tetrahydro-pyrimidine-5-carboxylic acid 3-phenyl-allyl ester], for which the half-maximal inhibitory concentration (IC50) is, setting by setting: under setting [1], under 500 nM; under setting [2], under 1000 nM.

In the case of `C=CCC(C=C)OC(=O)C1=C(C)NC(=S)NC1` (stereo not drawn) [Compound 55, 6-methyl-2-thioxo-1,2,3,4-tetrahydro-pyrimidine-5-carboxylic acid 1-vinyl-but-3-enyl ester], the IC50 was 2500 nM under setting [1] and 1000 to 10000 nM under setting [2].

As to `CC(C)=CCCC(C)=CCOC(=O)C1=C(C)NC(=S)NC1` [Compound 56, 6-methyl-2-thioxo-1,2,3,4-tetrahydro-pyrimidine-5-carboxylic acid 3,7-dimethyl-octa-2,6-dienyl ester], the concentration for half-maximal inhibition (IC50) is under 500 nM under setting [1] and under 1000 nM under setting [2].

For `CC1=C(C(=O)OC(c2ccccc2)c2ccccc2C)CNC(=S)N1` (stereo not drawn) [Compound 57, 6-methyl-2-thioxo-1,2,3,4-tetrahydro-pyrimidine-5-carboxylic acid phenyl-o-tolyl-methyl ester], the half-inhibitory concentration (IC50) is, setting by setting: under setting [1], 3500 nM; under setting [2], 1000 to 10000 nM.

As for `COc1cc(COC(=O)C2=C(C)NC(=S)NC2)ccc1OCc1ccccc1` [Compound 58, 6-methyl-2-thioxo-1,2,3,4-tetrahydro-pyrimidine-5-carboxylic acid 4-benzyloxy-3-methoxy-benzyl ester], the IC50 reads like this: under setting [1], under 500 nM; under setting [2], under 1000 nM.

With `CCN(CCOC(=O)C1=C(C)NC(=S)NC1)c1cccc(C)c1` [Compound 59, 6-methyl-2-thioxo-1,2,3,4-tetrahydro-pyrimidine-5-carboxylic acid 2-(ethyl-m-tolyl-amino)-ethyl ester], the concentration for half-maximal inhibition (IC50) reads like this: under setting [1], 3000 nM; under setting [2], 1000 to 10000 nM.

Regarding `CC1=C(C(=O)OCc2ccc(Br)cc2)CNC(=S)N1` [Compound 60, 6-methyl-2-thioxo-1,2,3,4-tetrahydro-pyrimidine-5-carboxylic acid 4-bromo-benzyl ester], the IC50 by setting is: under setting [1], under 500 nM; under setting [2], under 1000 nM.

Take `CC1=C(C(=O)OCc2ccc(F)cc2)CNC(=S)N1` [Compound 61, 6-methyl-2-thioxo-1,2,3,4-tetrahydro-pyrimidine-5-carboxylic acid 4-fluoro-benzyl ester]: the 50% inhibitory concentration (IC50) was 800 nM under setting [1] and under 1000 nM under setting [2].

Consider `COC1=C(C(=O)OCc2ccccc2)CNC(=S)N1` [Compound 63, 6-methoxy-2-thioxo-1,2,3,4-tetrahydro-pyrimidine-5-carboxylic acid benzyl ester], for which the IC50 is, setting by setting: under setting [1], over 100000 nM; under setting [2], over 20000 nM.

On to `COCC1=C(C(=O)OCc2ccccc2)CNC(=S)N1` [Compound 64, 6-methoxymethyl-2-thioxo-1,2,3,4-tetrahydro-pyrimidine-5-carboxylic acid benzyl ester], for which the concentration for half-maximal inhibition (IC50) runs as follows: under setting [1], 15000 nM; under setting [2], 10000 to 20000 nM.

For `COc1ccccc1COC(=O)C1=C(C)NC(=S)NC1` [Compound 65, 6-methyl-2-thioxo-1,2,3,4-tetrahydro-pyrimidine-5-carboxylic acid 2-methoxy-benzyl ester], the IC50 by setting is: under setting [1], 1000 nM; under setting [2], under 1000 nM.

As for `CCOc1ccccc1COC(=O)C1=C(C)NC(=S)NC1` [Compound 66, 6-methyl-2-thioxo-1,2,3,4-tetrahydro-pyrimidine-5-carboxylic acid 2-ethoxy-benzyl ester], the IC50 is 500 nM under setting [1] and under 1000 nM under setting [2].

With `CC1=C(C(=O)OC2CCCC2)CNC(=S)N1` [Compound 67, 6-methyl-2-thioxo-1,2,3,4-tetrahydro-pyrimidine-5-carboxylic acid cyclopentyl ester], the 50% inhibitory concentration (IC50) under setting [1] was found to be 6000 nM and the IC50 under setting [2] was in the range of 1000 to 10000 nM.

In the case of `CC1=C(C(=O)OCC2CCCC2)CNC(=S)N1` [Compound 68, 6-methyl-2-thioxo-1,2,3,4-tetrahydro-pyrimidine-5-carboxylic acid cyclopentylmethyl ester], the half-inhibitory concentration (IC50) under setting [1] was found to be 700 nM and the IC50 under setting [2] was under 1000 nM.

On to `CC1=C(C(=O)OCc2ccc(F)cc2F)CNC(=S)N1` [Compound 69, 6-methyl-2-thioxo-1,2,3,4-tetrahydro-pyrimidine-5-carboxylic acid 2,4-difluoro-benzyl ester], for which the IC50 is, setting by setting: under setting [1], 1200 nM; under setting [2], 1000 to 10000 nM.

For `CC1=C(C(=O)OCc2ccc(F)cc2Cl)CNC(=S)N1` [Compound 70, 6-methyl-2-thioxo-1,2,3,4-tetrahydro-pyrimidine-5-carboxylic acid 2-chloro-4-fluoro-benzyl ester], the IC50 is, setting by setting: under setting [1], under 500 nM; under setting [2], under 1000 nM.

For the molecule `CCOc1ccc(COC(=O)C2=C(C)NC(=S)NC2)cc1` [Compound 71, 6-methyl-2-thioxo-1,2,3,4-tetrahydro-pyrimidine-5-carboxylic acid 4-ethoxy-benzyl ester], the concentration for half-maximal inhibition (IC50) under setting [1] was determined as 2500 nM and the half-inhibitory concentration (IC50) under setting [2] fell in the range of 1000 to 10000 nM.

Turning to `CC1=C(C(=O)OCc2ccc(OCC(C)C)cc2)CNC(=S)N1` [Compound 72, 6-methyl-2-thioxo-1,2,3,4-tetrahydro-pyrimidine-5-carboxylic acid 4-isobutoxy-benzyl ester], the 50% inhibitory concentration (IC50) under setting [1] was under 500 nM and the IC50 under setting [2] was under 1000 nM.

As for `CC1=C(C(=O)OCc2ccc(S(C)(=O)=O)cc2)CNC(=S)N1` [Compound 74, 6-methyl-2-thioxo-1,2,3,4-tetrahydro-pyrimidine-5-carboxylic acid 4-methanesulfonyl-benzyl ester], the IC50 is, setting by setting: under setting [1], over 100000 nM; under setting [2], over 20000 nM.

For the molecule `CC1=C(C(=O)OCc2cccc(I)c2)CNC(=S)N1` [Compound 75, 6-methyl-2-thioxo-1,2,3,4-tetrahydro-pyrimidine-5-carboxylic acid 3-iodo-benzyl ester], the IC50 is, setting by setting: under setting [1], under 500 nM; under setting [2], under 1000 nM.

For `CC1=C(C(=O)OCc2ccc(C)c(C)c2)CNC(=S)N1` [Compound 76, 6-methyl-2-thioxo-1,2,3,4-tetrahydro-pyrimidine-5-carboxylic acid 3,4-dimethyl-benzyl ester], the half-inhibitory concentration (IC50) by setting is: under setting [1], 600 nM; under setting [2], under 1000 nM.

Turning to `CC1=C(C(=O)OCc2cccc([N+](=O)[O-])c2)CNC(=S)N1` [Compound 77, 6-methyl-2-thioxo-1,2,3,4-tetrahydro-pyrimidine-5-carboxylic acid 3-nitro-benzyl ester], the IC50 was 2300 nM under setting [1] and 1000 to 10000 nM under setting [2].

On to `CCCOc1ccc(COC(=O)C2=C(C)NC(=S)NC2)cc1` [Compound 78, 6-methyl-2-thioxo-1,2,3,4-tetrahydro-pyrimidine-5-carboxylic acid 4-propoxy-benzyl ester], for which the IC50 by setting is: under setting [1], 1000 nM; under setting [2], under 1000 nM.

The values are drawn from patent US20060116390A1, “Hepatitis c virus inhibitors” (priority 2003, published 2006).
